Experimental data taken from US20230312561A1, “SOLID FORMS OF (Z)-METHYL 3-(((4-(N-METHYL-2-(4-METHYLPIPERAZIN-1-YL)ACETAMIDO)PHENYL)AMINO)(PHENYL)METHYLENE)-2-OXO-2,3-DIHYDRO-1H-PYRROLO[2,3-B]PYRIDINE-6-CARBOXYLATE AND SALTS THEREOF” (Angion Biomedica Corp., priority 2020, published 2023).

Legend:
Format in all cases: physicochemical
[1] = Solid state stability under humid conditions (40° C./75% RH and 25° C./60% RH, two weeks)
Method: Stability of Compound 1 Hydrochloride Forms A, B, C, and D was evaluated under humid conditions. Samples of Forms A, B, C, and D were stored at 40° C./75% RH and 25° C./60% RH for a period of two weeks (loosely capped glass vials with approx. 200 mg solid). Solids were then re-analyzed using methods described herein. A summary of the results is provided in Table 12 (after storage at 25° C./60% RH) and Table 13 (after storage at 40° C./75% RH).

[2] = Solid state stability in sealed vial (XRPD, TGA, HPLC)
Method: High performance liquid chromatography (HPLC) was performed according to the conditions described in Table 1: […] Upon storage for the appropriate period, the entire sample was removed, and the resulting solids assessed via XRFD, HPLC and TGA. Sample preparation for HPLC was conducted using deionized water and a working concentration of 0.5 mg/mL. […] A control sample was packed and stored in an equivalent manner and tested at T=2 and 4 weeks. Form A was stable at 40° C. and 80° C. for at least up to 4 weeks.

[3] = Organic solubility (thermodynamic, 25° C., heating cycle to 75° C.); conditions: for Solubility at 25° C.: 20 volumes; for XRPD after heat/cool cycle: cycle up to 75° C.
Method: Compound 1 Hydrochloride Form A (Type 1 Lot) (ca. 50 mg) was equilibrated in a range of organic solvents in order to collect thermodynamic values for solubility. Solvents were charged in 500 μL aliquots (ca. 10 volumes) to the Compound 1 Hydrochloride Form A (Type 1 Lot) dispensed as a powder (ca. 50 mg) in 16 mm diameter glass reaction tubes until dissolution was achieved or up to 1000 μL (ca. 20 volumes) total volume was charged, with observations noted during dosing. The samples were equilibrated at 25° C. for a minimum of 24 hours with stirrer bead agitation.
Samples which remained as suspensions and contained enough solids were split into two equal portions, with one portion isolated by filtration and the resulting damp solids profiled by XRPD. These solids were then dried in vacuo at 45° C. for ca. 16 hours before further profiling. The filtrates from the solvent suspensions were isolated, diluted by 1 in 50 using acetonitrile/water (1:1), and the Compound 1 content determined by HPLC against a single point standard.
The remaining portion of each suspension was subjected to a heating cycle up to 75° C. with equilibration at 10° C. temperature intervals for a minimum of 30 minutes, before allowing to cool naturally to 40° C., followed by equilibration for ca. 16 hours before continuing to cool naturally (approximately 10° C./hr) to 25° C.

[4] = Solution state stability of Compound 1 Hydrochloride (HPLC purity in stressing media, 25° C.)
Method: The solution state stability of Compound 1 Hydrochloride Form A (Type 1 Lot) was examined under various storage conditions within a suitable glass vessel with stirrer bead agitation at 25° C. Compound 1 Hydrochloride stock solution ([…]) in HPLC diluent (acetonitrile/water, 1:1) was prepared and 5 mL placed within suitable glass vessels with stirrer bead agitation at 25° C. An aliquot of the appropriate stressing medium (5 mL) was added to achieve a sample concentration of approximately 0.5 mg/mL. The samples were agitated and stored at 25° C. and the solutions assessed for HPLC purity for stability at particular time points.

[5] = 40° C., sealed vial, T = 1 week
[6] = 40° C., sealed vial, T = 2 weeks
[7] = 40° C., sealed vial, T = 4 weeks
[8] = 80° C., sealed vial, T = 1 week
[9] = 80° C., sealed vial, T = 2 weeks
[10] = 80° C., sealed vial, T = 4 weeks
[11] = 150° C., sealed vial, T = 1 week

COC(=O)c1ccc2c(c1)NC(=O)/C2=C(\Nc1ccc(N(C)C(=O)CN2CCN(C)CC2)cc1)c1ccccc1.Cl [Compound 1 Hydrochloride Form A (Type 1 Lot)]
TGA After Storage: further loss above/post 200° C. ([1]; 25° C./60% RH): 100° C., further loss of 0.96% | TGA After Storage: total water content ([1]; 25° C./60% RH): of 10.9% | XRPD After Storage ([1]; 25° C./60% RH): Form A | TGA After Storage: further loss above/post 200° C. ([1]; 40° C./75% RH): 100° C., further loss of 1.05% | TGA After Storage: total water content ([1]; 40° C./75% RH): of 11.18% | TGA After Storage: weight reduction up to 100° C. ([1]; 40° C./75% RH): Weight reduction of 10.13% up to | XRPD After Storage ([1]; 40° C./75% RH): Form A | solid state stability in sealed vial ([2]; 40° C. and 80° C., at least up to 4 weeks): stable | HPLC (%) [2, 5]: 99.43% | TGA (%) [2, 5]: 12.01% | HPLC (%) [2, 6]: 99.43% | TGA (%) [2, 6]: 12.15% | HPLC (%) [2, 7]: 99.65% | TGA (%) [2, 7]: 11.6% | XRPD [2, 7]: Form A | HPLC (%) [2, 8]: 99.53% | TGA (%) [2, 8]: 3.76% | HPLC (%) [2, 9]: 99.45% | TGA (%) [2, 9]: 3.71% | HPLC (%) [2, 10]: 99.59% | TGA (%) [2, 10]: 3.35% | HPLC (%) [2, 11]: 36.6% | TGA (%) [2, 11]: 1.14% | HPLC (%) ([2]; Ambient (control), T = 0): 99.54% | TGA (%) ([2]; Ambient (control), T = 0): 12.07% | HPLC (%) ([2]; Ambient (control), T = 2 weeks): 99.43% | TGA (%) ([2]; Ambient (control), T = 2 weeks): 11.99% | HPLC (%) ([2]; Ambient (control), T = 4 weeks): 99.53% | TGA (%) ([2]; Ambient (control), T = 4 weeks): 12.15% | XRPD ([2]; Ambient (control), T = 4 weeks): Form A | Observation after heat/cool cycle [3]: Suspension | XRPD after equilibration at 25° C. ([3]; 2-Butanone): Form C | Solubility at 25° C. ([3]; 2-Butanone): 4.9 µg/mL | XRPD after heat/cool cycle ([3]; 2-Butanone): Form C | XRPD after equilibration at 25° C. ([3]; 2-Propanol): Form C | Solubility at 25° C. ([3]; 2-Propanol): 60 µg/mL | XRPD after heat/cool cycle ([3]; 2-Propanol): Form C | XRPD after equilibration at 25° C. ([3]; Acetone): Form C | Solubility at 25° C. ([3]; Acetone): 14.4 µg/mL | XRPD after heat/cool cycle ([3]; Acetone): Form C | XRPD after equilibration at 25° C. ([3]; Acetonitrile): Form C | Solubility at 25° C. ([3]; Acetonitrile): 170 µg/mL | XRPD after heat/cool cycle ([3]; Acetonitrile): Form C | Solubility at 25° C. ([3]; Anisole): 8.1 µg/mL | XRPD after heat/cool cycle ([3]; Anisole): Unassigned form | XRPD after equilibration at 25° C. ([3]; DMSO): Form A | Solubility at 25° C. ([3]; DMSO): 10820 µg/mL | XRPD after heat/cool cycle ([3]; DMSO): Form A | Solubility at 25° C. ([3]; Dichloromethane): 1750 µg/mL | XRPD after heat/cool cycle ([3]; Dichloromethane): Form C | XRPD after equilibration at 25° C. ([3]; Diethyl ether): Form C | Solubility at 25° C. ([3]; Diethyl ether): 3 µg/mL | XRPD after heat/cool cycle ([3]; Diethyl ether): Form C | XRPD after equilibration at 25° C. ([3]; Ethanol): Form C | Solubility at 25° C. ([3]; Ethanol): 880 µg/mL | XRPD after heat/cool cycle ([3]; Ethanol): Form C | XRPD after equilibration at 25° C. ([3]; Ethyl acetate): Form C | Solubility at 25° C. ([3]; Ethyl acetate): 1.8 µg/mL | XRPD after heat/cool cycle ([3]; Ethyl acetate): Form C | XRPD after equilibration at 25° C. ([3]; Heptane): Form A | Solubility at 25° C. ([3]; Heptane): 2.2 µg/mL | XRPD after heat/cool cycle ([3]; Heptane): Form A | XRPD after equilibration at 25° C. ([3]; Isopropyl acetate): Form C | Solubility at 25° C. ([3]; Isopropyl acetate): 2.8 µg/mL | XRPD after heat/cool cycle ([3]; Isopropyl acetate): Form C | XRPD after equilibration at 25° C. ([3]; MIBK): Form C | Solubility at 25° C. ([3]; MIBK): 1.8 µg/mL | XRPD after heat/cool cycle ([3]; MIBK): Form C | XRPD after equilibration at 25° C. ([3]; Methanol): Form B | Solubility at 25° C. ([3]; Methanol): 4480 µg/mL | XRPD after equilibration at 25° C. ([3]; TBME): Form A | Solubility at 25° C. ([3]; TBME): 2.3 µg/mL | XRPD after equilibration at 25° C. ([3]; Tetrahydrofuran): Form C | Solubility at 25° C. ([3]; Tetrahydrofuran): 12.5 µg/mL | XRPD after heat/cool cycle ([3]; Tetrahydrofuran): Form C | XRPD after equilibration at 25° C. ([3]; Toluene): Form A | Solubility at 25° C. ([3]; Toluene): 0.6 µg/mL | dissolution in organic solvents on heating cycle ([3]; any temperature (25° C.-75° C.), any solvent tested): Full or partial dissolution was not observed | XRPD after equilibration at 25° C. ([3]; n-Butyl acetate): Form C | Solubility at 25° C. ([3]; n-Butyl acetate): 0.7 µg/mL | XRPD after heat/cool cycle ([3]; n-Butyl acetate): Form C | HPLC (%) ([4]; 1 M HCl, 1 h): 99.53% | HPLC (%) ([4]; 1 M HCl, 6 h): 99.29% | HPLC (%) ([4]; 1 M HCl, 24 h): 96.56% | HPLC (%) ([4]; 1 M HCl, 3 d): 95.63% | HPLC (%) ([4]; 1 M HCl, 7 d): 90.58% | HPLC (%) ([4]; 1 M NaOH, 1 h): 0.49% | HPLC (%) ([4]; 1 M NaOH, 6 h): 0.65% | HPLC (%) ([4]; 5% H2O2, 1 h): 80.39% | HPLC (%) ([4]; 5% H2O2, 6 h): 46.74% | HPLC (%) ([4]; 5% H2O2, 24 h): 0.42% | HPLC (%) ([4]; Control (water), 1 h): 99.68% | HPLC (%) ([4]; Control (water), 6 h): 99.69% | HPLC (%) ([4]; Control (water), 24 h): 99.54% | HPLC (%) ([4]; Control (water), 3 d): 99.42% | HPLC (%) ([4]; Control (water), 7 d): 99.50%
